Like-named read-outs stand apart in the source and are kept apart here.
Experiments:
W37ILplA [1] = target: T1, W37ILplA (Escherichia coli, UniProt P32099, W38I); experiment: Measurement of kcat values for Ald and Hyd ligation; assay type: biochemical, E. coli; conditions: for Vmax / kcat: 1 μM W37ILplA, 600 μM LAP, 500 μM probe
T1 construct: His6 (N); made in house; host or cells: E. coli
Description: Values of kcat for W37ILplA ligation of the Ald and Hyd probes onto LAP peptide were determined by measuring the initial reaction rates by HPLC. The conditions used were as follows: 1 μM W37ILplA, 600 μM LAP, 500 μM of Ald or Hyd, 2 mM magnesium acetate, and 25 mM sodium phosphate buffer, pH 7.2. Each initial rate was measured in triplicate and the average value reported. The error shown represents ±1 s.d. The equation kcat=Vmax/[E] was used to determine the kcat value.

W37ILplA [2] = target: T1, W37ILplA; experiment: In vitro screening for Ald and Hyd ligation activity (HPLC); assay type: biochemical, E. coli; conditions: 1 μM W37ILplA, 500 μM probe
Description: Ligation reactions were assembled as follows: 1 μM of purified LplA mutant (Uttamapinant, et al., 2010), 150 μM synthetic LAP2 peptide ([…]; SEQ ID NO:4), 5 mM ATP, 500 μM of either Ald or Hyd probe, 5 mM magnesium acetate, and 25 mM Na2HPO4 pH 7.2 in a total volume of 20 μL. Reactions were incubated for 5 to 60 min at 30° C. and then quenched with EDTA to a final concentration of 45 mM. Samples were diluted to a total volume of 80 μL in conjugation buffer (10 mM Na2HPO4, 3.2 mM KH2PO4, 2.7 mM KCl, 140 mM NaCl, pH 5.0) and analyzed on a Varian Prostar HPLC using a reverse-phase C18 Microsorb-MV 100 column (250×4.6 mm). Chromatograms were recorded at 210 nm. For analysis of the aldehyde ligation reaction we used a 10-minute gradient of 30-60% acetonitrile in water with 0.1% trifluoroacetic acid under 1 mL/minute flow rate. For analysis of the hydrazine ligation reaction a gradient of 25-60% over 14 minutes with the same solvents was used. Percent conversions were calculated by dividing the product peak area by the sum of (product+starting material) peak areas. Reactions were performed in triplicate (Ald) or duplicate (Hyd) and the average values are shown. Reactions in FIG. 27C were performed using the conditions above with a 70 minute reaction time for Ald and 120 minute reaction time for Hyd.

W37VLplA = W37VLplA (Escherichia coli, UniProt P32099, W38V); conditions: 500 μM probe, 500 μM LAP, 30° C.
Description: After 5, 10, 15 and 20 minutes, an aliquot was drawn from the reaction vial, quenched with 30 mM EDTA (final concentration) and the product quantified by HPLC as in Table 3. The plot of product concentration against time was fitted to a linear line whose slope corresponds to the initial velocity. The value of kcat was calculated from the Michaelis-Menten equation Vmax=(kcat)([Enzyme]) at substrate-saturating conditions. Measurements were performed in triplicate.

[3] = target: T2, WTLplA / LAP-YFP in HEK cells (Escherichia coli, UniProt P32099); experiment: Azide ligation yield in cells (native gel shift of LAP-YFP), wild-type LplA; assay type: cell-based, E. coli
T2 construct: expressed in transfected cells; host or cells: HEK cells
Description: (§1) For azide 7 ligation, cells were transfected with 50 ng WTLplA and 1000 ng pcDNA3-LAP-YFP. For azide 9 ligation, cells were transfected with 500 ng W37ILplA and either 1000 ng pcDNA3-LAP-YFP or pcDNA3-LAP(K⋄A)-YFP using Lipofectamine 2000 (Life Technologies). The LplA:LAP plasmid ratios are identical to the conditions used for imaging. 18 hr after transfection, cells were incubated in growth media (MEM supplemented with 10% FBS) containing 200 μM azide 7 or azide 9 for 30 min or 1 hr at 37° C. Excess azide probe was washed out over 1 hr. […] Cells were then centrifuged at 13,000 rpm for 2 min, and the supernatant was analyzed on a 12% polyacrylamide native gel without SDS (5 μL lysate per lane) at constant 200 V. Prior to Coomassie staining, in-gel fluorescence of YFP was visualized on a FUJIFILM FLA-9000 instrument using LD473 laser and Long Pass Blue (LPB) filter. […]
(§2) We also used a gel shift assay as a separate readout of azide ligation yield inside cells. […] The yield of azide ligation to LAP-YFP was determined by shift on a native polyacrylamide gel. The unmodified fusion protein, visualized by YFP fluorescence, runs at an apparent molecular weight of ˜42 kD. […]

Trp37→Ile LplA = Trp37→Ile LplA (Escherichia coli, UniProt P32099, W38I); conditions: 30 min reaction, 500 μM probe; normalized to TCO2/Trp37→Val
Description: LplA protein was purified as previously described2 and stored at −80° C. in 20 mM Tris-HCl, pH 7.5 supplementated with 10% v/v glycerol. Reactions were quenched with 30 mM EDTA (final concentration) and resolved by HPLC (Varian ProStar) on a C-18 column using a linear gradient of 25-60% acetonitrile in H2O (with 0.1% v/v trifluoroacetic acid) over 14 minutes. Species were detected at 210 nm absorbance. Peaks corresponding to LAP and its trans-cyclooctene adducts were confirmed by ESI mass spectrometry. The extent of conversion was calculated from ratios of peak areas, neglecting minor extinction coefficient changes to LAP due to trans-cyclooctene ligation.
The relative abilities of wild-type and mutant ligases to ligate TCO1-3 onto LplA acceptor peptide (LAP) were measured by an HPLC assay after 30 min. reaction time. […] Errors, ±1 s. d.

W37ILplA [4] = target: T1, W37ILplA; assay type: biochemical, E. coli
Description: Reactions were quenched with 40 mM EDTA (ethylenediaminetetraacetic acid, final concentration). Percent conversion to LAP-azide adduct was determined by HPLC with a C18 reverse phase column, recording absorbance at 210 nm. Elution conditions were 30-60% acetonitrile in water with 0.1% trifluoroacetic acid over 20 minutes at 1.0 mL/min flow rate. The percent conversion was calculated from the ratio of LAP-azide to sum of (unmodified LAP+LAP-azide). Reactions containing 1 μM LplA enzyme, 500 μM azide 9, and 300 μM LAP peptide were incubated at 30° C. for 2 hours. To determine kinetic measurements, reactions containing 100 nM W37ILplA, 25-700 μM azide 9, and 600 μM LAP peptide were incubated at 30° C., before quenching at various time points with EDTA.
Reactions were set up as described in the main text. Aliquots were taken and quenched before product conversion exceeded 5%. To calculate initial rates, we determined the amount of product at each time point by generating a calibration curve using purified LAP and LAP-azide 9 mixed at different ratios. This curve correlated the measured ratio of integrated HPLC peak areas to the actual ratio, i.e. adjusted for any differences in extinction coefficient of LAP vs. LAP-azide 9. Initial rates (Vo) were determined at each azide 9 concentration, by plotting the amount of LAP-azide 9 product against time. The slope of the line gives Vo. Vo values were then plotted against azide 9 concentration in FIG. S3C, and Origin 8.5.1 was used to fit the curve to the Michaelis-Menten equation Vo=Vmax[azide 9]/(Km+[azide 9]). From the Vmax, kcat was calculated using Vmax=kcat[E]total. Measurements of Vo values at each azide 9 concentration were performed in triplicate.

[5] = target: T3, W37ILplA / LAP-YFP in HEK cells (Escherichia coli, UniProt P32099, W38I); experiment: Azide ligation yield in cells (native gel shift of LAP-YFP), W37ILplA; assay type: cell-based, E. coli
T3 construct: expressed in transfected cells; host or cells: HEK cells
Description: as §1, §2

[6] = system: LAP-LDL receptor on HEK cells; experiment: Live cell surface fluorogenic labeling without dye washout; assay type: cell-based, human; conditions: 50 nM, without rinsing
Description: After 5 rinses with Tyrode's buffer, the chamber was placed on the microscope objective covered with 200 μL of the same buffer. Image acquisition sequence was initiated immediately after 200 μL of 100 nM Tz1-fluorescein in Tyrode's buffer was added to the chamber, and briefly mixed by pipeting. Final concentration of Tz1-fluorescein was therefore 50 nM after mixing. LAP-LDL receptor and a mCherry fluorescent protein transfection marker were transfected at a 1:1 ratio, with altogether 400 ng plasmid per 1 cm^2 culture.
To quantify the imaging signal/noise ratio, 17 cells with obvious surface fluorescence (by eye) at the 180 sec. time point were chosen and separate masks created automatically by the Slidebook software over the fluorescent rims. The averaged pixel intensity was defined as “signal”. To measure noise, 10 cells with no obvious surface fluorescence (by eye) at the 180 sec. time point were chosen, and rectangular masks created manually over the interiors of these cells. The averaged (over all 10 masks) pixel intensity was defined as “noise”.

[7] = Tetrazine-dye fluorescence turn-on after Diels-Alder cycloaddition; assay type: physicochemical; conditions: DPBS pH 7.4, >100-fold excess TCO1
Description: Tetrazine-fluorophore conjugates were dissolved in Dulbecco's phosphate buffered saline, pH 7.4 at approximately 100 nM concentration. Solutions with >100-fold excess TCO1 in DMSO or DMSO vehicle alone added were transferred into an opaque, flat-bottom 96-well plate (Greiner Bio One) and their fluorescence emission scanned with a Safire Tecan fluorescence microplate reader. Excitation was fixed at 430 nm for fluorescein, 530 nm for TMR, and 610 nm for Alexa 647. Fold-changes in fluorescence turn-on are reported at respective fluorescence emission maximum wavelengths.

[8] = In vitro second-order Diels-Alder cycloaddition rate constant; conditions: DPBS, pseudo-first-order approximation
Description: Ligation reaction was allowed to proceed at 30° C. for 4 hours to maximize ligation yield. The mixture was then resolved by preparatory HPLC on a C-18 column (25-45% acetonitrile over 30 min. linear gradient, supplemented with 0.1% v/v trifluoroacetic acid), where the product eluted at 19 min. and its identity confirmed by ESI mass spectrometry. The eluate was freeze-dried into a white powder and dissolved in DPBS for subsequent measurements.
To measure second-order rate constant by pseudo-first-order approximation, 100 μL Tz1- or Tz2-fluorescein (100 nM in DPBS) was loaded into an opaque, flat-bottom 96-well plate (Greiner Bio One), then mixed with 100 μL LAP-TCO2 (3.3 μM in DPBS). The fluorescence intensity at 520 nm was immediately recorded at 9-second intervals until the reaction reached completion in approximately 5 minutes. The fluorescence intensity was then converted to [tetrazine-fluorescein], assuming that initial fluorescence corresponded to 50 nM and final fluorescence corresponded to 0 nM tetrazine-fluorescein. […] Measurements were performed in triplicate.

[9] = 100 nM W37ILplA, 600 μM LAP, 30° C.

T1 sequence (P32099 2-338 W38I): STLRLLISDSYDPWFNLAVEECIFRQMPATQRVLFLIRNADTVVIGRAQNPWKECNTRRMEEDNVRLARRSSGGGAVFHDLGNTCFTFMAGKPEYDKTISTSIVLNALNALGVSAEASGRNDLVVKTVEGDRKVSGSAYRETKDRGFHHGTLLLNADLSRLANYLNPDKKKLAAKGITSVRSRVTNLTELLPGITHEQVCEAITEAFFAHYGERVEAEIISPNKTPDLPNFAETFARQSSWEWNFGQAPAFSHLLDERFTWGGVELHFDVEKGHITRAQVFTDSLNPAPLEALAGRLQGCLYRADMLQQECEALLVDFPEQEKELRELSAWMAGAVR
T3 sequence (P32099 2-338 W38I): as above
T2 sequence (P32099 2-338): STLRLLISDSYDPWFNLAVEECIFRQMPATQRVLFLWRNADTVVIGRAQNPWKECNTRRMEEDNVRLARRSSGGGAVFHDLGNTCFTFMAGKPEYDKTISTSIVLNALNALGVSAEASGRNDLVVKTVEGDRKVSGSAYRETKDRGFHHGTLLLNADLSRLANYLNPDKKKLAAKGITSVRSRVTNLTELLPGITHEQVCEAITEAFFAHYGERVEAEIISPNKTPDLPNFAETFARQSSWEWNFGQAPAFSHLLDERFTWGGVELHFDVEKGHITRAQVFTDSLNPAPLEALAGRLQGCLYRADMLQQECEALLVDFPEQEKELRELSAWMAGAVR
Sequence of Trp37→Ile LplA (P32099 2-338 W38I): as the sequence (P32099 2-338 W38I) above
Sequence of W37VLplA (P32099 2-338 W38V): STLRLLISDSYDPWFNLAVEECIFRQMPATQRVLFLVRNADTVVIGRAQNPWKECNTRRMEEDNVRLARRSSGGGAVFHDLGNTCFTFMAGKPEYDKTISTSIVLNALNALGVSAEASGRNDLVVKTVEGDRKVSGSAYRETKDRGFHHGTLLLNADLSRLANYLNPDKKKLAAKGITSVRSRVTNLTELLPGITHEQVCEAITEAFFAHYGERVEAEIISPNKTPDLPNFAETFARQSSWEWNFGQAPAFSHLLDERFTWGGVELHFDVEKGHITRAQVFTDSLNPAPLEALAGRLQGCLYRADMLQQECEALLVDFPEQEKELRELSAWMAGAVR

## NNc1ccc(C(=O)NCCCCC(=O)O)cn1 [Hyd]
W37ILplA [1]
  Vmax: 1.25 ± 0.16 µM/min
  kcat: 0.021 ± 0.003 s⁻¹
W37ILplA [2]; 60 min
  reaction completion: 50%

## O=C(O)CCCCNC(=O)O[C@H]1CC/C=C/CCC1 (stereo in doubt) [TCO2, rel-(1R-4E-pR)-cyclooct-4-ene-1-yl-N-pentanoic acid carbamate]
W37VLplA
  Michaelis-Menten kcat of ligation onto LAP: 0.34 ± 0.02 s⁻¹

## 2-Azidomethyl-4-chloropyridine [Azide 7]
[3]; 50 ng WTLplA plasmid
  ligation yield in cells, repeat of the experiment: 67%
[3]; 200 μM azide, 1 hour labeling, densitometry
  ligation yield in cells: 73%

## O=Cc1ccc(C(=O)NCCCCC(=O)O)cc1 [Ald]
W37ILplA [1]
  activity of Ald versus Hyd: ten-fold greater activity
  Vmax: 19.7 ± 0.7 µM/min
  kcat: 0.33 ± 0.01 s⁻¹
W37ILplA [2]; 150 μM LAP peptide, 5 minutes
  reaction completion: 62%

## O=C(O)CCCNC(=O)O[C@H]1CC/C=C/CCC1 (stereo in doubt) [TCO1, rel-(1R-4E-pR)-cyclooct-4-ene-1-yl-N-butyric acid carbamate]
Trp37→Ile LplA
  Ligation efficiency (average, normalized product percentage), Trp37→Ile: 0.5 ± 0.4%

## [N-]=[N+]=NCCCCCCCCCC(=O)O [azide 9, 10-azidodecanoic acid]
W37ILplA [4]
  Km lower than azide 7 ligation catalyzed by wild-type LplA: 4 fold
  improvement in kcat/Km over azide 7 ligation catalyzed by wild-type LplA: 2 fold
  kcat reduced compared to azide 7 ligation catalyzed by wild-type LplA: 1.8 fold
W37ILplA [4]; [9]
  Km: 35 µM
  kcat: 0.0603 s⁻¹
[5]; 500 ng W37ILplA plasmid
  ligation yield in cells, repeat of the experiment: 89%
[5]; 200 μM azide, 30 minutes incubation
  ligation yield in cells: nearly quantitative

## Aminobenzyltetrazine carboxyfluorescein [Tz1-fluorescein]
[6]
  time to saturation of signal-to-noise ratio: approximately 3 minutes
[7]
  increase in fluorescein emission upon reaction with excess trans-cyclooctene: 13.4 fold
[8]
  second order rate constant for reaction with TCO2-ligated LAP: 5000 ± 700 M⁻¹ s⁻¹

— patent US20150125904A1, “PROBE INCORPORATION MEDIATED BY ENZYMES” (Massachusetts Institute of Technology, priority 2012, published 2015)
